Among the test systems are UACC-257 melanoma; SK-MEL-5 melanoma; CAKI-1 renal; LOX IMVI melanoma; COLO 205 colon; OVCAR-4 ovarian; SW-620 colon; KM12 colon; HCT-15 colon; DU-145 prostate.
Common to all, as to assay: inhibition of tumour cell growth, NCI panel, 48 h

The structures appear in SMILES notation. “And” between values parts separate entries of the source, which are not always exact repeats. Equal entries are not always repeated.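 Where inhibition never reached the appropriate level, the endpoint shown equals the highest concentration tested. Otherwise, values were interpolated linearly from a five-concentration, 48-hour dose response in 96-well plates. Abbreviation: GI50, concentration required for 50% inhibition of growth. Definition used: TGI = concentration required for complete inhibition of growth.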

`CC/C=C\C[C@H](O)C/C=C1/C(=O)C=C[C@@H]1C/C=C\CCCC(=O)OC`: the GI50 in the test on UACC-257 melanoma was 2.36 µM; in the test on SK-MEL-5 melanoma, 1.54 µM; in the test on CAKI-1 renal it was 3.11 µM; with LOX IMVI melanoma, 0.237 µM; in the test on COLO 205 colon, 1.84 µM; with OVCAR-4 ovarian it was 3.48 µM. Also, the GI50 was 0.784 µM in the test with SW-620 colon, 1.38 µM with KM12 colon, 0.538 µM in the test with HCT-15 colon and 4.07 µM with DU-145 prostate. Besides, the TGI in the test on UACC-257 melanoma worked out at 7.09 µM; with SK-MEL-5 melanoma, 2.91 µM; in the test with CAKI-1 renal, 12.7 µM; with LOX IMVI melanoma it was 0.609 µM; in the test on COLO 205 colon, 4.02 µM; in the test with OVCAR-4 ovarian, 16.2 µM. The TGI amounted to 11.3 µM in the test on SW-620 colon, 5.02 µM in the test with KM12 colon, 2.79 µM with HCT-15 colon and 15.2 µM in the test on DU-145 prostate.

Take `COc1c2c(cc3c1OCO3)[C@]13C=C[C@H](OC)C[C@H]1N(C2)CC3O` (stereo not given in full): the TGI in the test with UACC-257 melanoma, with SK-MEL-5 melanoma, in the test with CAKI-1 renal, in the test with LOX IMVI melanoma, with COLO 205 colon and with OVCAR-4 ovarian was above 100 µM each time. The TGI in the test with SW-620 colon, in the test on KM12 colon, with HCT-15 colon and in the test on DU-145 prostate was above 100 µM each time.

Regarding `O=C1c2cccnc2-c2nc(-c3ccc(Cl)cc3)cc3c2c1nc1ccccc13`, the GI50 in the test on UACC-257 melanoma is 57.7 µM; in the test with SK-MEL-5 melanoma, 17.5 µM; in the test with CAKI-1 renal it was 67.7 µM; in the test with LOX IMVI melanoma, 35.7 µM; in the test with COLO 205 colon, above 100 µM; in the test with OVCAR-4 ovarian it was 43.6 µM. The GI50 was 28.6 µM in the test with SW-620 colon, 41 µM with KM12 colon, 23.9 µM in the test with HCT-15 colon and 75.4 µM in the test with DU-145 prostate. Also, the TGI in the test with UACC-257 melanoma was above 100 µM; in the test with SK-MEL-5 melanoma, 80.8 µM; in the test with CAKI-1 renal, above 100 µM; in the test on LOX IMVI melanoma it was above 100 µM; with COLO 205 colon, above 100 µM; with OVCAR-4 ovarian, above 100 µM. Further, the TGI with SW-620 colon, in the test with KM12 colon, with HCT-15 colon and with DU-145 prostate was above 100 µM each time.

In the case of `Nc1nc(Nc2cccnc2)sc1C(=O)c1ccccc1F`, the GI50 in the test with UACC-257 melanoma is 4.29 µM; in the test on SK-MEL-5 melanoma, 0.349 µM; in the test with CAKI-1 renal it was 1.94 µM; in the test on LOX IMVI melanoma, 2.26 µM; with COLO 205 colon, 1.78 µM; in the test with OVCAR-4 ovarian, 8.74 µM. The GI50 with SW-620 colon is 3.5 µM; in the test with KM12 colon, 3.06 µM; in the test on HCT-15 colon, 2.82 µM; with DU-145 prostate it was 3.38 µM. The TGI was 40.1 µM in the test with UACC-257 melanoma; 3.32 µM in the test on SK-MEL-5 melanoma; 6.86 µM in the test with CAKI-1 renal; above 100 µM in the test on LOX IMVI melanoma; 4.68 µM with COLO 205 colon; 76.6 µM with OVCAR-4 ovarian. Besides, the TGI in the test with SW-620 colon was above 42.6 µM; in the test on KM12 colon, 32.5 µM; in the test on HCT-15 colon it was above 87.8 µM; with DU-145 prostate, above 100 µM.

`CC(=O)O[C@H]1CCC2[C@@H]3CC[C@]4(C)CC(=O)C=C[C@]4(C)C3CC[C@@]21C` (stereo not given in full): the TGI with UACC-257 melanoma is 43.9 µM; in the test on SK-MEL-5 melanoma, 28.3 µM; in the test with CAKI-1 renal, above 100 µM; with LOX IMVI melanoma, 30.9 µM; in the test on COLO 205 colon, 31.3 µM; in the test on OVCAR-4 ovarian, 31.8 µM. Besides, the TGI was 33.8 µM in the test with SW-620 colon, 44.3 µM with KM12 colon, 38.7 µM in the test with HCT-15 colon and above 100 µM in the test on DU-145 prostate.

For `CC1=C(/C=C/Cl)CC(Cl)C(C)(Cl)C1` (stereo not given), the TGI in the test with UACC-257 melanoma, with SK-MEL-5 melanoma, with CAKI-1 renal, in the test on LOX IMVI melanoma, in the test on COLO 205 colon and in the test with OVCAR-4 ovarian was above 100 µM each time. The TGI in the test on SW-620 colon, in the test with KM12 colon, with HCT-15 colon and with DU-145 prostate was above 100 µM throughout.

In the case of `CC1=CC(=O)C=CC1=O`, the GI50 in the test with UACC-257 melanoma was 35.9 µM and 17.4 µM; in the test with SK-MEL-5 melanoma, 29.3 µM and 13.4 µM; in the test with CAKI-1 renal it was 15.1 µM and 15.3 µM; with LOX IMVI melanoma, 17.9 µM and 14.4 µM; in the test on COLO 205 colon, 13.4 µM and 12.1 µM; with OVCAR-4 ovarian it was 15.1 µM. In addition, the GI50 in the test with SW-620 colon was 5.31 µM; in the test on KM12 colon it was 14.1 µM and 16.5 µM; with HCT-15 colon, 19.1 µM and 13.2 µM; in the test with DU-145 prostate it was 17.3 µM and 17.8 µM. The TGI is 33.9 µM in the test on UACC-257 melanoma; 26.3 µM in the test on SK-MEL-5 melanoma; 28.4 µM and 29.8 µM in the test with CAKI-1 renal; 42.6 µM and 28 µM in the test on LOX IMVI melanoma; 27.3 µM and 25 µM in the test with COLO 205 colon; 30.4 µM in the test with OVCAR-4 ovarian. Moreover, the TGI with SW-620 colon was 20.8 µM; in the test with KM12 colon it was 27.7 µM and 32.1 µM; in the test on HCT-15 colon, 38 µM and 29 µM; in the test with DU-145 prostate, 31 µM and 32.4 µM.

In the case of `CCc1nc2cc(F)c(/C=C/C(=O)NO)cc2c(=O)n1CCc1ccccc1`, the GI50 was 0.216 µM in the test on UACC-257 melanoma; 0.256 µM in the test on SK-MEL-5 melanoma; 0.305 µM with CAKI-1 renal; 0.208 µM in the test on LOX IMVI melanoma; 0.221 µM with COLO 205 colon; 0.314 µM in the test on OVCAR-4 ovarian. For the same compound, the GI50 with SW-620 colon is 0.336 µM; in the test with KM12 colon it was 0.412 µM; with HCT-15 colon, 0.36 µM; in the test with DU-145 prostate it was 0.358 µM. Further, the TGI turned out to be 0.72 µM in the test with UACC-257 melanoma; 0.701 µM in the test with SK-MEL-5 melanoma; 3.12 µM in the test with CAKI-1 renal; 0.46 µM in the test with LOX IMVI melanoma; 0.537 µM in the test on COLO 205 colon; 14.9 µM in the test on OVCAR-4 ovarian. Also, the TGI in the test on SW-620 colon was 12.1 µM; with KM12 colon, 15 µM; in the test with HCT-15 colon, 18.6 µM; in the test on DU-145 prostate it was 10.5 µM.

Values taken from PubChem BioAssay (NCI).
